Assay results published in patent publication US20020091273A1, “Method for the regioselective preparation of substituted benzo[g]quinoline3-carbonitriles and benzo[g]quinazolines” (American Home Products Corporation, priority 2000, published 2002).
Where a name gives a salt, the structure may show the parent alone.

Structure (SMILES)	melting point
COc1cc2cc3c(Nc4ccc(Br)cc4F)ncnc3cc2cc1OCCN1CCOCC1 (as salt: hydrochloride) [Example 32, (4-Bromo-2-fluorophenyl)-[7-methoxy-8-(2-morpholin-4-yl-ethoxy)benzo[g]quinazolin4-yl]-amine]	210 to 225 °C
COc1cc(Nc2ncnc3cc4cc(OCCN5CCOCC5)c(OC)cc4cc23)c(Cl)cc1Cl (as salt: hydrochloride) [Example 33, (2,4-Dichloro-5-methoxyphenyl)-[7-methoxy-8-(2-morpholin-4-yl-ethoxy)benzo[g]-quinazolin-4-yl]-amine]	258 to 260 °C
COc1cc(CBr)c(Br)cc1OCc1ccccc1 [Example 1, 5-(Benzyloxy)-1-bromo-2-(bromomethyl)-4-methoxybenzene]	103 to 105 °C
COc1cc(CCC#N)c(Br)cc1OCc1ccccc1 [Example 2, 3-(4-Benzyloxy-2-bromo-5-methoxyphenyl)-propionitrile]	52 to 53 °C
COc1cc2c(cc1OCc1ccccc1)C(C#N)C2 (centres unmarked) [Example 3, 4-Benzyloxy-3-methoxybicyclo[4.2.0]octa-1,3,5-triene-7-carbonitrile]	85 °C
COc1cc2c(cc1OCc1ccccc1)C(C#N)(Sc1ccc(Cl)cc1)C2 (centres unmarked) [Example 4, 4-Benzyloxy-7-(4-chloro-phenylsulfanyl)-3-methoxybicyclo [4.2.0]octa-1,3,5-triene-7-carbonitrile]	114 to 115 °C
COc1cc2c(cc1OCc1ccccc1)C(C#N)(Sc1ccccc1)C2 (centres unmarked) [Example 5, 4-Benzyloxy-3-methoxy-7-phenylsulfanylbicyclo [4.2.0]octa-1,3,5-triene-7-carbonitrile]	109 to 110 °C
COc1cc2cc(C(=O)OC(C)(C)C)c(N)cc2cc1OCc1ccccc1 [Example 7, 3-Amino-6-benzyloxy-7-methoxynaphthalene-2-carboxylic acid tert-butyl ester]	179 to 180 °C
COc1cc2cc3c(=O)c(C#N)c[nH]c3cc2cc1OCc1ccccc1 [Example 8, 8-Benzyloxy-7-methoxy-4-oxo-1,4-dihydrobenzo[g]quinoline-3-carbonitrile]	> 300 °C
COc1cc2cc(C(=O)OC(C)(C)C)c(N)cc2cc1O [Example 9, 3-Amino-6-hydroxy-7-methoxy-naphthalene-2-carboxylic acid tert-butyl ester]	262 to 263 °C
COc1cc2cc(C(=O)OC(C)(C)C)c(N)cc2cc1OCCN1CCOCC1 [Example 10, 3-Amino-7-methoxy-6-(2-morpholin-4-yl-ethoxy)-naphthalene-2-carboxylic acid tert-butyl ester]	125 to 127 °C
COc1cc2cc3c(=O)[nH]cnc3cc2cc1OCCN1CCOCC1 [Example 11, 7-Methoxy-8-(2-morpholin4-yl-ethoxy)-3H-benzo[g]quinazolin-4-one]	230 to 232 °C
COc1cc2cc3c(=O)c(C#N)c[nH]c3cc2cc1OCCN1CCOCC1 [Example 12, 7-Methoxy-8-(2-morpholin-4-yl-ethoxy)-4-oxo-1,4-dihydrobenzo[g]quinoline-3-carbonitrile]	275 °C (dec.)
COc1cc2cc3c(=O)c(C#N)c[nH]c3cc2cc1O [Example 13, 8-Hydroxy-7-methoxy-4-oxo-1,4-dihydrobenzo[g]quinoline-3-carbonitrile]	> 300 °C
COc1cc2cc3c(Cl)c(C#N)cnc3cc2cc1O [Example 14, 4-Chloro-8-hydroxy-7-methoxybenzo[g]quinoline-3-carbonitrile]	> 300 °C
COc1cc2cc3c(Nc4ccc(Sc5nccn5C)c(Cl)c4)c(C#N)cnc3cc2cc1O [Example 15, 4-[3-Chloro-4-(1-methyl-1 H-imidazol-2-ylsulfanyl)phenylamino]-8-hydroxy-7-methoxybenzo[g]quinoline-3-carbonitrile]	> 300 °C
COc1cc2cc3c(Nc4ccc(Sc5nccn5C)c(Cl)c4)c(C#N)cnc3cc2cc1OCCN1CCOCC1 [Example 17, 4-[3-Chloro-4-(1-methyl-1H-imidazol-2-ylsulfanyl)phenylamino]-7-methoxy-8-(2-morpholin-4-yl-ethoxy)benzo[g]quinoline-3-carbonitrile]	> 300 °C
COc1cc2cc3c(Nc4ccc(Sc5nccn5C)c(Cl)c4)c(C#N)cnc3cc2cc1OCCn1ccnn1 [Example 22, 4-[3-Chloro-4-(1-methyl-1H-imidazol-2-ylsulfanyl)phenylamino]-7-methoxy-8-(2-[1,2,3]triazol-1-yl-ethoxy)benzo[g]quinoline-3-carbonitrile]	201 to 207 °C
COc1cc(Nc2c(C#N)cnc3cc4cc(OCCCCl)c(OC)cc4cc23)c(Cl)cc1Cl [Example 24, 8-(3-Chloropropoxy)-4-(2,4-dichloro-5-methoxyphenylamino)-7-methoxybenzo[g]quinoline-3-carbonitrile]	220 to 223 °C
COc1cc(Nc2c(C#N)cnc3cc4cc(OCCCN5CCOCC5)c(OC)cc4cc23)c(Cl)cc1Cl [Example 25, 4-(2,4-Dichloro-5-methoxyphenylamino)-7-methoxy-8-(3-morpholin-4-yl-propoxy)benzo[g]quinoline-3-carbonitrile]	205 to 208 °C
COc1cc2cc(C#N)c(N)cc2cc1OCc1ccccc1 [Example 29, 3-Amino-6-benzyloxy-7-methoxynaphthalene-2-carbonitrile]	241 to 243 °C
COc1cc(Nc2ncnc3cc4cc(OCc5ccccc5)c(OC)cc4cc23)c(Cl)cc1Cl [Example 30, (8-Benzyloxy-7-methoxybenzo[g]quinazolin-4-yl)-(2,4-dichloro-5-methoxyphenyl)amine]	275 to 280 °C
COc1cc2cc3c(Cl)ncnc3cc2cc1OCCN1CCOCC1 [Example 31, 4-Chloro-7-methoxy-8-(2-morpholin-4-yl-ethoxy)benzo[g]quinazoline]	166 to 168 °C
